Test results published in US20030138429A1, “Compositions and methods for inhibiting metastasis” (priority 2001, published 2003).

Key:
[1] = test system: 1-LN human prostate tumor cells; assay: Binding of 125I-labeled Pg 2 glycoforms to 1-LN cells; conditions: 125I-labeled glycoform 0.1 μM, increasing concentrations of inhibitor
Protocol: Ligand Binding Analysis—Cells were grown in tissue culture plates until the monolayers were confluent. Prior to use in binding assays, the cells were washed in HBSS. All binding assays were performed at 4° C. in RPMI 1640 containing 2% bovine serum ablumin (BSA). Increasing concentrations of ^125I-labeled Pg 2 glycoforms were incubated with cells for 60 min in 48-well or 96-well culture plates, respectively. Free ligand was separated from bound by aspirating the incubation mixture by and washing the cell monolayers rapidly three times with RPMI 1640 containing 2% BSA. The cells were then lyzed with 0.1 M NaOH, and bound radioactivity was determined in a Pharmacia LKB Biotechnology 1272-gamma counter. Molecules of ligand bound were calculated after substraction of non-specific binding measured in the presence of nonlabeled 100 μM Pg 2. Estimates for dissociation constant (Kd) values and maximal binding of Pg 2 glycoforms (Bmax) were determined by fitting data directly to the Langmuir isotherm using the statistical program SYStat® for Windows.
Binding of Single Pg 2 Glycoforms to 1-LN Human Prostate Tumor Cells—Binding of ^125I-labeled single Pg 2 glycoforms to 1-LN cells was determined as described under Experimental Procedures. Native Pg 2 has six glycoforms which differ in their sialic acid content.
In order to assess the binding mechanism of the individual Pg 2 glycoforms to 1-LN cells, we studied their activation by cells incubated with each glycoform in the presence of 6-aminohexanoic acid (6-AHA) and L-lactose. The antifibrinolytic amino acid 6-AHA prevents interaction of Pg L-lysine binding sites with several cell membrane-associated components. L-lactose is a sugar which intereferes with binding of Neu 5-AC (α2-3) or (α2-6) residues to sialic acid binding proteins and inhibits binding of Native Pg 2 to DPP IV on the surface of rheumatoid synovial fibroblasts.

[2] = test system: 1-LN cells; assay: MMP-9 activity in serum-free culture medium of 1-LN cells (quantitative gelatin zymography); type: cell-based, human
Protocol: Gelatin Zymography—Protein samples were electrophoresed on gelatin-containing 0.75 mm thick 10% polyacrylamide gels in the presence of SDS under nonreducing conditions. After completion of the electrophoretic run, the gels were incubated with two changes of 2.5% Triton X-100 for 1 h, followed by incubation for 18 h at 37° C. in 0.1 M glycine-NaOH, pH 8.3, containing 1 mM CaCl2, and […], before staining with Coomassie Brilliant Blue R-250 to visualize the lysis bands.
MMP-9 Activity in Solution—MMP-9 activity was measured in tissue culture supernatants by quantitative zymography using as a standard MMP-9 purified by affinity chromatography on gelatin-Sepharose from 1-LN cell conditioned medium (10 liters). Conditioned medium (50 μl), from 1-LN cell monolayers in 48 well culture plates (1.7×10^6 cells/well) incubated with Pg 2 glycoforms and/or inhibitors of Pg binding or activation, were electrophoresed on gelatin-containing gels and the degree of lysis was quantified using a Gelman ACD-15 Automatic Computing Densitometer (Gelman Instrument Company, Ann Arbor, Mich.). Values were determined by integrating the density of the selected bands and expressed in units×mm^2. Each gel was scanned three times and the average value of the integrated density of the bands was used to determine levels of MMP-9 from calibration curves constructed with purified active MMP-9 electrophoresed under the same conditions. The statistical analysis of the data was performed on an IBM 433 DX/S computer using the program SYSTAT® for Windows 95. The statistical significance of differences between means was evaluated by Student's t-test. MMP-9 was positively identified in conditioned medium by electrophoretic separation in 10% SDS-polyacrylamide gels (SDS-PAGE), electroblot of the electrophoresed proteins to nitrocellulose membranes and reaction with an anti-MMP-9 mAb (1 μg/ml) followed by reaction with a secondary alkaline phosphatase conjugated anti-mouse IgG. Detection was performed by reaction with the alkaline phosphatase substrate 5-bromo-4-chloro-3-indolyl phosphate in the presence of nitroblue tetrazolium (1 mM each) in 10 mM Tris-HCl, pH 8.5.
Effect of Pg on the Expression of MMP-9 by 1-LN Cells—Cells were seeded into 48-well culture plates and grown in RPMI 1640 containing 10% fetal bovine serum. Confluent monolayers were then incubated for 24 h with quiescent culture medium containing RPMI 1640 and 0.5% fetal bovine serum. Each individual Pg 2 glycoform (0.1 μM) was added in triplicate to cell monolayers in 300 μl of serum-free RPMI 1640 and incubated for 24 h at 37° C. Culture medium was collected to measure secretion of MMP-9 as described under Experimental Procedures. Prior to analyses of the MMP-9 secreted into the medium by 1-LN cells in the presence of individual Pg 2 glycoforms, we purified MMP-9 from conditioned medium (5 liters) by the technique of Masure et al.. […] A similar analysis of the Mr˜95,000 protein yielded the sequence APRQRQ, corresponding to the amino-terminal sequence of proMMP-9. […] We then proceeded to analyze the MMP-9 secreted into the medium by 1-LN cells incubated with each individual Pg 2 glycoform in serum-free culture medium, using the purified MMP-9 as a standard for quantification by gelatin zymography. These analyses (FIG. 7A) show a major band of active protein with a Mr˜85,000. […] Samples of these conditioned media were also subjected to SDS-PAGE under reducing conditions, electroblotted to nitrocellulose membranes and then reacted with an anti-MMP-9 mAb (FIG. 7B). […] A 4-fold decrease in the production of MMP-9 by cells co-incubated with anti-DPP IV mAb 236.3 and Pg 2ε (p<0.001) (Table II) is clearly observed in the conditioned medium (Lane 6 on FIGS. 8A and 8B, respectively).

[3] = test system: 1-LN cells; assay: In vitro Matrigel invasion assay (modified Boyden chamber); type: cell-based, human; conditions: cells incubated with Pg (Pg 2ε) plus inhibitor, in words
Protocol: In Vitro Invasion Assay—The invasive activity in vitro was assessed by determining the ability of 1-LN cells to invade Matrigel® [47]. Polycarbonate filters (8-μm pore size; Becton Dickinson, Franklin Lakes, N.J.) were coated with Matrigel (12 μg/filter) and placed in a modified Boyden chamber. Cells (1×10^5) were added to the upper chamber in serum-free RPMI 1640 medium, or medium containing purified Pg 2 glycoforms in the absence and presence of anti-DPP IV, anti-u-PA or anti-MMP-9 IgGs, and incubated for 48 h in a humidified atmosphere. Following incubation, non-invading cells were removed from the upper chamber with a cotton swab, and filters were excised and stained with Cyto-Quik™ (Fisher Scientific, Fair Lawn, N.J.). Cells on the lower surface of the filter were enumerated using an ocular micrometer and counting a minimum of five high-powered fields. Each experiment was performed twice with triplicate samples.
Effect of Pg on 1-LN Cellular Invasion—Pg enhances the ability of prostate cancer PC-3 and DU-145 cell lines to penetrate the synthetic basement membrane Matrigel® [54]. To determine whether Pg regulates invasion via secretion of MMP-9, 1-LN cells were incubated with different inhibiting antibodies in the presence of purified Pg 2 glycoforms.

| Compound | Inhibition of binding of single Pg 2 glycoforms to 1-LN cells [1] | Active MMP-9 ([2]; SFM + additive alone, no Pg 2 glycoform, 24 h) [ng/mL] | Changes in the production of MMP-9 ([2]; co-incubated with 6-AHA (100 mM) and individual Pg 2 glycoforms, versus controls) | Effect on Pg-induced Matrigel invasion by 1-LN cells [3] |
| --- | --- | --- | --- | --- |
| NCCCCCC(=O)O [Glycoform 6-AHA, 6-aminohexanoic acid, reference compound] | inhibited the binding of Pg 2α and Pg 2β | 0.61 ± 0.14 | did not show any major changes | – |
| FN peptide L1768 TSRPA: polypeptide comprising the fibronectin (FN) primary sequence L1768 TSRPA that mediates FN binding to CD26/DPP IV (FPAPDG; UniProt P02751 1768-1773, looked up, fragment) | – | – | – | inhibited Pg-induced Matrigel invasion by 1-LN cells in a dose-dependent manner |
| angiostatin | – | – | – | total inhibition |
